Source: PubChem BioAssay (NCI)
“And” between values parts separate entries of the source, which are not always exact repeats. Equal entries are not always repeated.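 Compound exposure: 48 hours, 5 concentrations, 96-well plates. GI50: concentration for 50% inhibition of growth. At the TGI there is no net growth.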

Experiments:
Assay in all cases: NCI tumour cell line growth inhibition, 48 h
RXF 393 renal = system: RXF 393 renal
EKVX NSCLC = system: EKVX NSCLC
SNB-19 CNS = system: SNB-19 CNS
CAKI-1 renal = system: CAKI-1 renal
OVCAR-3 ovarian = system: OVCAR-3 ovarian
SN12C renal = system: SN12C renal
IGROV1 ovarian = system: IGROV1 ovarian
SK-MEL-2 melanoma = system: SK-MEL-2 melanoma
DU-145 prostate = system: DU-145 prostate
PC-3 prostate = system: PC-3 prostate

Structure (SMILES) | TGI (RXF 393 renal) | TGI (EKVX NSCLC) | TGI (SNB-19 CNS) | TGI (CAKI-1 renal) | TGI (OVCAR-3 ovarian) | TGI (SN12C renal) | TGI (IGROV1 ovarian) | TGI (SK-MEL-2 melanoma) | GI50 (RXF 393 renal) | GI50 (DU-145 prostate) | TGI (DU-145 prostate) | GI50 (EKVX NSCLC) | GI50 (SNB-19 CNS) | GI50 (CAKI-1 renal) | GI50 (OVCAR-3 ovarian) | GI50 (IGROV1 ovarian) | GI50 (SK-MEL-2 melanoma) | GI50 (SN12C renal) | TGI (PC-3 prostate) | GI50 (PC-3 prostate)
CN(C)c1ccc2c(=O)c3ccccc3oc2n1 | > 100 µM | > 100 µM | > 100 µM | > 100 µM | > 100 µM | > 100 µM | > 100 µM | > 100 µM |  |  |  |  |  |  |  |  |  |  |  | 
O=C1[C@@H]2C(c3ccccc3Br)=NO[C@@H]2C(=O)N1c1ccc(Cc2ccc(N3C(=O)[C@H]4C(c5ccccc5Br)=NO[C@H]4C3=O)cc2)cc1 | > 100 µM | > 100 µM |  | > 100 µM | > 100 µM | > 100 µM | > 100 µM | > 100 µM |  |  |  |  |  |  |  |  |  |  |  | 
CC(C)(C)NNC(=O)/C(=C/c1ccc([N+](=O)[O-])cc1)NC(=O)c1ccccc1 | > 100 µM | > 100 µM | > 100 µM | > 100 µM | > 100 µM | > 100 µM | > 100 µM | > 100 µM |  |  |  |  |  |  |  |  |  |  |  | 
CC(C)/C=C1\CCC(CN2CCCC2)C1=O (configuration not stated) | 29.7 µM | 40 µM | > 64.2 µM | 10.2 µM | 31.8 µM | 34.8 µM | > 62.5 µM | 37.7 µM |  |  |  |  |  |  |  |  |  |  |  | 
COc1ccc(C2CC(=O)c3c(O)cc(O)cc3O2)cc1O (configuration not stated) |  | > 100 µM | > 100 µM | > 100 µM | > 100 µM | > 100 µM | > 100 µM | > 100 µM |  |  |  |  |  |  |  |  |  |  |  | 
CC(C)[C@]12O[C@H]1[C@@H]1O[C@]13[C@]1(O[C@H]1C[C@H]1C4=C(CC[C@@]13C)C(=O)OC4)[C@@H]2O | 0.0353 µM and < 0.0169 µM | 0.0994 µM and 0.283 µM | > 100 µM | > 100 µM | 0.0932 µM and 0.377 µM |  | > 100 µM | 0.0195 µM and 0.0323 µM | 0.0172 µM and < 0.0107 µM | 0.0163 µM | > 100 µM | 0.0166 µM | 0.0627 µM | 0.0111 µM and < 0.01 µM | 0.0198 µM | 0.0257 µM | 0.0157 µM |  |  | 
COc1ccccc1NC(=O)c1sc2nc3c(cc2c1N)C(=O)CCC3 | 9.33 µM |  | > 100 µM |  | > 100 µM | > 100 µM | > 100 µM | > 100 µM | 1.83 µM | > 100 µM | > 100 µM |  | 12.8 µM |  | 25.3 µM | 8.15 µM | 1.81 µM | > 100 µM |  | 
Clc1ncnc(Cl)c1Cl | > 100 µM |  | > 100 µM | > 100 µM | > 100 µM | > 100 µM | > 100 µM |  |  |  | > 100 µM |  |  |  |  |  |  |  | > 100 µM | 
FC(F)(F)Oc1cccc(-c2cnc3ccc(-c4ccncc4)nn23)c1 | 2.41 µM | > 100 µM | > 100 µM | 4.11 µM | 7.43 µM | > 100 µM | 5.46 µM |  | 0.398 µM | 1.6 µM | > 100 µM | 1.39 µM | 2.07 µM | 0.417 µM | 1.65 µM | 0.502 µM |  | 1.56 µM |  | 
COC(=O)C1=C(c2ccc(OC)c(OC)c2)OC(c2ccc(OC)c(OC)c2)C1 (configuration not stated) | 69.9 µM | > 100 µM |  |  | > 100 µM | > 100 µM | > 100 µM | > 100 µM |  |  |  |  |  |  |  |  |  |  |  | 
Cc1ccc(S(=O)(=O)N[C@H](C(=O)O)c2ccccc2)cc1 | > 100 µM | > 100 µM | > 100 µM | > 100 µM | > 100 µM | > 100 µM | > 100 µM | > 100 µM |  |  |  |  |  |  |  |  |  |  |  | 
COc1cccc2c1C(=O)C=CC2=O | 17.7 µM | 32.8 µM | 29.3 µM | 13 µM | 3.51 µM | 27.4 µM | 27.2 µM | 19.8 µM |  |  | 33.5 µM |  |  |  |  |  |  |  |  | 
CC(NS(=O)(=O)c1ccc([N+](=O)[O-])cc1)C(=O)O (configuration not stated) | > 100 µM | > 100 µM | > 100 µM | > 100 µM | > 100 µM | > 100 µM | > 100 µM | > 100 µM |  |  |  |  |  |  |  |  |  |  |  | 
NC1=NC(=O)/C(=C/c2ccccc2[N+](=O)[O-])C(N)=N1 | > 100 µM | > 100 µM | > 100 µM | > 100 µM | > 100 µM | > 100 µM | > 100 µM | > 100 µM |  |  |  |  |  |  |  |  |  |  |  | 
O=C1C(Cl)=C(Nc2cccc(Cl)c2)C(=O)N1Cc1ccccc1 | 7 µM |  | 55.1 µM | 27.7 µM | 17.7 µM | 25.1 µM | > 100 µM | > 100 µM | 1.36 µM | 15.3 µM | 30.6 µM |  | 14.5 µM | 5.06 µM | 5.02 µM | 8.15 µM | 21.7 µM | 11.2 µM | 20.1 µM | 3.52 µM
CS/C(=N\C(=S)N(C)C)N(c1ccccc1)c1nc(=[N+](C)C)ss1 | 37.4 µM | 49.3 µM | > 100 µM | 80.2 µM | 22.7 µM | 37.9 µM | > 100 µM | 36.6 µM |  |  |  |  |  |  |  |  |  |  |  | 
